In the experiment the test system is TSU-PR1 cells. In words: TSU-PR1 tumor xenograft in whole-body-irradiated BALB/NUDE mice. Type of experiment: in vivo. The note with it: BALB/NUDE mice irradiated with 400 cGy, s.c. TSU-PR1 tumors; AD-2813 20 mg/kg in cremophor s.c. daily close to tumor; after about 10 days of treatment; compared to control and cremophor groups (FIG. 1). The protocol:
BALB/NUDE mice were whole body irradiated with 400 cGy, 10 days later they were injected s.c. with 3.5*10e6 TSU-PR1 cells/mouse which are commonly considered as prostate carcinoma cells but recently are also considered by some as bladder carcinoma cells. Eight days later, tumors were formed, and mice were separated into 3 groups: Group 1: a control without any injection. Group 2: were injected s.c. with vehicle (cremophor) Group 3: were treated s.c. daily with AD-2813 (20 mg/kg in cremophor) close to tumor. […] The drastic change in tumor volume is pronounced particularly when compared to the control and treatment with cremophor groups.

SMILES strings stand for the structures.

Take `CCCCCCCCCCCCCCNC(CO)C(O)c1ccc(SC)cc1.Cl` (stereo not shown) [AD-2813]: the tumor volume result was “significant decrease in tumor volume”.

Values taken from US20100311841A1, “SYNTHETIC SPHINGOLIPID ANALOGS” (priority 2007, published 2010).
